Data reported in paper PMC6386482, “ASB20123: A novel C-type natriuretic peptide derivative for treatment of growth failure and dwarfism” (PLoS ONE, 2019).
One block for each compound: values may come before it. Ends that are not written are not given here. Peptide text beside a SMILES is read from it.

How the values were obtained:
[1] = PK of CNP immunoreactivity after single intravenous administration in rats; format: in vivo, rat
[2] = PK of CNP immunoreactivity after single subcutaneous administration in rats; format: in vivo, rat
[3] = mouse, in vivo
Experimental: Three-week-old juvenile female ICR mice (n = 5 or 10/group) received ASB20123 sc bolus injections once daily for 8 weeks. Seven-week-old male SD rats (n = 5/group) received ASB20123 as multiple sc bolus injections or a continuous sc infusion using an osmotic mini-pump (ALZET osmotic pump, Durect Corporation, USA) for 1 or 12 weeks. Growth rate of each animal was monitored throughout the treatment and washout periods. Body weight, body (naso-anal) length, and tail length were measured weekly, and femoral and tibial lengths were measured with digital calipers on the final day. Osteocalcin concentration in mouse serum was measured as a marker of bone formation using commercially available ELISA kits (Mouse Osteocalcin EIA kit, Biomedical Technologies Inc., USA). Anti-ASB20123 antibody in mouse serum was measured using commercially available ELISA kits (Protein detector ELISA Kit, Kirkegaard & Perry Laboratories, Inc., USA) and ASB20123. The blood samples were collected from the posterior vena cava at the end of the dosing period and centrifuged to obtain serum samples. CNP immunoreactivity in rat plasma was determined by RIA as mentioned in the method of PK studies. The blood samples were collected from cervical vein at 15 min after sc bolus dosing or before necropsy for animals given a continuous sc infusion.

[4] = Plasma CNP immunoreactivity after sc bolus in vehicles containing ECM in rats
Experimental: We prepared CNP(1–22) and ASB20123 dissolved in vehicles containing ECM and delivered them to rats as sc bolus injections at 0.58 mg/kg for evaluation of their in vivo effects (S2 Fig).

[5] = cited from earlier work
Excerpt: C-type natriuretic peptide (CNP) is a member of the natriuretic peptide (NP) family that also includes atrial natriuretic peptide (ANP) and brain natriuretic peptide (BNP). […] However, CNP is expressed in various tissues, such as the central nervous system, reproductive tract, bone, and endothelium of blood ...

[6] = test system: Crouzon syndrome mouse model; conditions: cited from earlier work
Excerpt: (§1) In the previous study, we designed and evaluated some CNP/ghrelin chimeric peptides as novel CNP derivatives. […] In the current study, we prepared another novel CNP/ghrelin chimeric peptide ASB20123 and evaluated its pharmacological activities. ASB20123 is comp ...

Fgfr3^ach mice = conditions: cited from earlier work
Excerpt: as §1

female ICR mice = test: Skeletal growth of mice given CNP(1–22) or human CNP(1–53) sc for 3 weeks; format: in vivo, mouse; conditions: subcutaneous administration for 3 weeks (S3 Fig)
Excerpt: Interstitial diffusion of macromolecules, such as HA and glycosaminoglycan, is affected by their physiochemical characteristics, including their size, charge, and hydrophilicity, as well as their interactions with the endogenous components present in the interstitium. Interaction between ASB20123 and the endogenous molecules might play a role in the diffusion and absorption processes. […] The C-terminal part of ASB20123 might interact with ECM components, such as HA and glycosaminoglycan, resulting in a delay of its absorption from the sc tissue to the circulation and improvement of its stability.
Supplementary file pone.0212680.s003.tif: S3 Fig Body weight and body length of female ICR mice subcutaneously administered CNP(1–22) and human CNP(1–53) for 3 weeks. (TIF) Click here for additional data file.

[7] = test system: neutral endopeptidase (NEP); conditions: cited from earlier work
[8] = anesthetized male SD rats, single iv 20 nmol/kg, plasma CNP immunoreactivity by RIA, mean of 3 rats
[9] = anesthetized male SD rats, single sc 50 nmol/kg, plasma CNP immunoreactivity by RIA, mean of 3 rats

- T1/2 ([1]; rat, in vivo, iv): 31.3 min
- Vdss ([1]; rat, in vivo, iv): 0.429 L/kg
- Vdss relative to that of CNP(1–22) ([1]; rat, in vivo, iv): 6.7 fold
- T1/2 ([2]; rat, in vivo, sc): 32.1 min
- Tmax ([2]; rat, in vivo, sc): 20.0 min
- Anti-ASB20123 antibody in serum [3]: not detected
- Time to reach the maximum plasma CNP concentration (Cmax) ([4]; rat, in vivo, sc, 0.58 mg/kg): delayed
Compound: CC[C@H](C)[C@@H]1NC(=O)[C@H](CCCNC(=N)N)NC(=O)[C@H](CC(=O)O)NC(=O)[C@H](CC(C)C)NC(=O)[C@H](CCCCN)NC(=O)[C@H](CC(C)C)NC(=O)CNC(=O)[C@H](Cc2ccccc2)NC(=O)[C@@H](NC(=O)CNC(=O)[C@H](CCCCN)NC(=O)[C@H](CO)NC(=O)[C@H](CC(C)C)NC(=O)CN)CSSC[C@@H](C(=O)N[C@H](C(=O)N[C@@H](CCC(N)=O)C(=O)N[C@@H](CCC(N)=O)C(=O)N[C@@H](CCCNC(=N)N)C(=O)N[C@@H](CCCCN)C(=O)N[C@@H](CC(=O)O)C(=O)N[C@@H](CO)C(=O)N[C@@H](CCCCN)C(=O)N[C@@H](CCCCN)C(=O)N2CCC[C@H]2C(=O)N2CCC[C@H]2C(=O)N[C@@H](C)C(=O)N[C@@H](CCCCN)C(=O)N[C@@H](CC(C)C)C(=O)N[C@@H](CCC(N)=O)C(=O)N2CCC[C@H]2C(=O)N[C@@H](CCCNC(=N)N)C(=O)O)C(C)C)NC(=O)CNC(=O)[C@H](CC(C)C)NC(=O)CNC(=O)[C@H](CO)NC(=O)[C@H](CCSC)NC(=O)[C@H](CO)NC(=O)CNC1=O [ASB20123] (HELM PEPTIDE1{G.L.S.K.G.C.F.G.L.K.L.D.R.I.G.S.M.S.G.L.G.C.V.Q.Q.R.K.D.S.K.K.P.P.A.K.L.Q.P.R}$PEPTIDE1,PEPTIDE1,6:R3-22:R3$$$V2.0)
- AUC ([4]; rat, in vivo, sc, 0.58 mg/kg): higher than that when ASB20123 was dissolved in saline

Compound: CC[C@H](C)[C@@H]1NC(=O)[C@H](CCCNC(=N)N)NC(=O)[C@H](CC(=O)O)NC(=O)[C@H](CC(C)C)NC(=O)[C@H](CCCCN)NC(=O)[C@H](CC(C)C)NC(=O)CNC(=O)[C@H](Cc2ccccc2)NC(=O)[C@@H](NC(=O)CNC(=O)[C@H](CCCCN)NC(=O)[C@H](CO)NC(=O)[C@H](CC(C)C)NC(=O)CN)CSSC[C@@H](C(=O)O)NC(=O)CNC(=O)[C@H](CC(C)C)NC(=O)CNC(=O)[C@H](CO)NC(=O)[C@H](CCSC)NC(=O)[C@H](CO)NC(=O)CNC1=O [CNP(1–22), C-type natriuretic peptide]
- AUC0→∞ [1, 8]: 320 pmol・min/mL
- CLtot [1, 8]: 63.9 mL/min/kg
- MRT0→∞ [1, 8]: 1.02 min
- T1/2 [1, 8]: 1.42 min
- Vdss [1, 8]: 0.0642 L/kg
- BA ([2]; anesthetized male SD rats, single sc 50 nmol/kg, bioavailability, mean of 3 rats): 19%
- AUC0→∞ [2, 9]: 152 pmol・min/mL
- Cmax [2, 9]: 9.02 nM
- MRT0→∞ [2, 9]: 13.9 min
- T1/2 [2, 9]: 10.0 min
- Tmax [2, 9]: 5.0 min
- PK profile, effect of vehicle components ([4]; rats, sc bolus 0.58 mg/kg in vehicles containing ECM): not affected by its vehicle components
- Clearance of exogenous peptide from the circulation [5]: rapidly cleared from the circulation

Compound: BMN-111
- Body length [6]: increased the body length
- Body length (Fgfr3^ach mice): increased the body length

Compound: CNP(1–53): 53-residue peptide generated from pro-CNP (DLRVDTKSRAAWARLLQEHPNARKYKGANKKGLSKGCFGLKLDRIGSMSGLGC; ends and bridges not checked; cysteine pairing not given here; UniProt P23582 74-126, looked up)
- Skeletal growth compared to CNP(1–22) (female ICR mice): more potently than that induced by CNP(1–22) administration
- Stability against neutral endopeptidase (NEP) [7]: resistant to proteolytic inactivation
